These results are taken from patent US8637526B2, “Pyrazolopyrimidine JAK inhibitor compounds and methods” (Genentech, Inc., priority 2008, dated 2014).

In test [1] the target is human JAK2 kinase domain (Homo sapiens (Human), UniProt O60674). Briefly: JAK2 Inhibition Assay Protocol (Caliper LabChip peptide phosphorylation). Particulars: enzymatic activity, 25 uM ATP; read-out: JAK2i Ki. It counts as biochemical. An excerpt:
Saltzman et al., Biochem. Biophys. Res. Commun. 246:627-633 (2004). The catalytically active kinase domain of human JAK2 was purified from extracts of SF9 insect cells infected with a recombinant baculovirus expression vector encoding the human JAK2 kinase domain (amino acid residues D812-G1132 according to the numbering of GenBank sequence accession number NP_004963.1). The activity of the JAK2 kinase domain can be measured by a number of direct and indirect methods, including quantification of phosphorylation of peptide substrates derived from the human JAK3 protein Saltzman et al., Biochem. Biophys. Res. Commun. 246:627-633 (2004). The activity of the JAK2 kinase domain was measured in vitro by monitoring phosphorylation of JAK3 derived peptides using the Caliper LabChip technology (see Examples).
The activity of the isolated kinase domain of JAK2 can be measured by monitoring phosphorylation of peptide substrates derived from the human JAK3 kinase in vitro Saltzman et al., Biochem. Biophys. Res. Commun. 246:627-633 (2004). The human JAK2 kinase domain was expressed with an N-terminal His6 tag followed by a thrombin cleavage site using the baculovirus expression vector system. The kinase domain expressed is defined as amino acid residues D812-G1132 according to the numbering of GenBank sequence accession number NP_004963.1. Recombinant DNA transfer vectors were co-transfected with BakPAK6 linearized DNA (Clontech Laboratories, Inc., Mountain View, Calif.) and the resulting viral stocks were amplified using standard protocols. Protein was produced in SF9 cells grown to a cell density of 2E6/mL in ESF921 media (Expression Systems LLC, Woodland, Calif.) and infected at an M.O.I. of 1 in Wave bioreactors. The cells were harvested 72 hours post infection, and active JAK2 enzyme was purified from the lysates of infected cells by Ni-NTA (Qiagen, Valencia, Calif.) column chromatography followed by Sephacryl S-200 (GE Healthcare, Piscataway, N.J.) column chromatography.
(§1) The catalytically active kinase domain of human JAK1, JAK2, JAK3 or TYK2 was purified from extracts of SF9 insect cells infected with a recombinant baculovirus expression vector encoding the human JAK1, JAK2, JAK3 or TYK2 kinase domains (JAK1 amino acid residues N852-D1154 according to the numbering of GenBank sequence accession number P23458, JAK2 amino acid residues D812-G1132 according to the numbering of GenBank sequence accession number NP_004963.1; JAK3 amino acid residues S783-S1124 according to the numbering of GenBank sequence accession number P52333, and TYK2 amino acid residues N873-C1187 according to the numbering of GenBank sequence accession number P29597). The activity of the JAK1, JAK2, JAK3 or TYK2 kinase domains can be measured by a number of direct and indirect methods, including quantification of phosphorylation of peptide substrates derived from the human JAK3 protein (Saltzman et al., Biochem. Biophys. Res. Commun. 246:627-633 (2004)). The activity of the JAK1, JAK2, JAK3 or TYK2 kinase domains was measured in vitro by monitoring phosphorylation of JAK3 derived peptides using the Caliper LabChip technology.
(§2) The activity of the isolated JAK2 kinase domain was measured by monitoring phosphorylation of a peptide derived from JAK3 ([…] fluorescently labeled on the N-terminus with 5-carboxyfluorescein using the Caliper LabChip technology (Caliper Life Sciences, Hopkinton, Mass.). […] Reactions were incubated at 22° C. in 384-well polypropylene microtiter plates for 30 minutes and then stopped by addition of 250 μL of an EDTA containing solution (100 mM Hepes pH 7.2, 0.015% Brij-35, 150 mM EDTA), resulting in a final EDTA concentration of 50 mM. After termination of the kinase reaction, the proportion of phosphorylated product was determined as a fraction of total peptide substrate using the Caliper LabChip 3000 according to the manufacturer's specifications. Ki values were then determined using the Morrison tight binding model.

Test [2] deals with human JAK1 kinase domain (Homo sapiens (Human), UniProt P23458). Nature of the test: JAK1 Inhibition Assay Protocol (Caliper LabChip peptide phosphorylation). It counts as biochemical. As to conditions: enzymatic activity, 25 uM ATP.
Excerpt: as §1
as §2, with “JAK1 or TYK2” for “JAK2”, “25 uL” for “250 μL”, “model (Morrison, J. F., Biochim. Biophys. Acta. 185:269-296 (1969); William, J. W. and Morrison, J. F., Meth. Enzymol., 63:437-467 (1979)).” for “model.”

In test [3] the test system is TF-1 cells. Nature of the test: EPO-stimulated STAT5 phosphorylation in TF-1 cells (JAK2-dependent signaling, MSD). The test is classed as cell-based. Particulars: Homo sapiens, read-out: EPO pSTAT5 TF1 EC50. The protocol:
The activities of compounds were determined in cell-based assays that are designed to measure JAK1 or JAK2-dependent signaling. Compounds were serially diluted in DMSO and incubated with TF-1 cells (American Type Culture Collection (ATCC); Manassas, Va.) in 384-well microtiter plates in OptiMEM medium without phenol red, 1% Charcoal/Dextran stripped FBS, 0.1 mM NEAA, 1 mM sodium pyruvate (Invitrogen Corp.; Carlsbad, Calif.) at a final cell density of 100,000 cells per well and a final DMSO concentration of 0.2%. Human recombinant IL-6 (R&D systems; Minneapolis, Minn.) or EPO (Invitrogen Corp.; Carlsbad, Calif.) was then added at a final concentration of 30 ng/mL or 10 Units/mL, respectively, to the microtiter plates containing the TF-1 cells and compound and the plates were incubated for 30 min at 37° C. Compound-mediated effects on STAT3 or STATS phosphorylation were then measured in the lysates of cells incubated in the presence of IL-6 or EPO, respectively, using the Meso Scale Discovery (MSD) technology (Gaithersburg, Md.) according to the manufacturer's protocol and EC50 values were determined.

For test [4], the target named is human TYK2 kinase domain (Homo sapiens (Human), UniProt P29597). Briefly: TYK2 Inhibition Assay Protocol (Caliper LabChip peptide phosphorylation). It counts as biochemical. Particulars: enzymatic activity, 25 uM ATP; read-out: TYK2i Ki.
Excerpt: as §1
as §2, with “JAK1 or TYK2” for “JAK2”, “25 uL” for “250 μL”, “model (Morrison, J. F., Biochim. Biophys. Acta. 185:269-296 (1969); William, J. W. and Morrison, J. F., Meth. Enzymol., 63:437-467 (1979)).” for “model.”

[5] abbreviates: 0.5 h, TF-1 cells, EPO 10 Units/mL, 30 min.

pEC50, pKi: −log10 of the molar value. Where two headings read alike, the source gives them in different places.

Sequence of human JAK2 kinase domain (O60674 812-1132): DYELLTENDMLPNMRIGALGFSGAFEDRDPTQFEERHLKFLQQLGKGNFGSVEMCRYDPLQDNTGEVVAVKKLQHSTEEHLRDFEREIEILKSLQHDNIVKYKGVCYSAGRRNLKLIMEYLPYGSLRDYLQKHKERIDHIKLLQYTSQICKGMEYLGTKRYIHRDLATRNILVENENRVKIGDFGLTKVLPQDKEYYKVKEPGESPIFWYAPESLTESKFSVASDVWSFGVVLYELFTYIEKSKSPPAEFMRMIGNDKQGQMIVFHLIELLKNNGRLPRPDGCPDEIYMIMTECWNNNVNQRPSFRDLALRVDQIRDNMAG
Sequence of human TYK2 kinase domain (P29597 873-1187): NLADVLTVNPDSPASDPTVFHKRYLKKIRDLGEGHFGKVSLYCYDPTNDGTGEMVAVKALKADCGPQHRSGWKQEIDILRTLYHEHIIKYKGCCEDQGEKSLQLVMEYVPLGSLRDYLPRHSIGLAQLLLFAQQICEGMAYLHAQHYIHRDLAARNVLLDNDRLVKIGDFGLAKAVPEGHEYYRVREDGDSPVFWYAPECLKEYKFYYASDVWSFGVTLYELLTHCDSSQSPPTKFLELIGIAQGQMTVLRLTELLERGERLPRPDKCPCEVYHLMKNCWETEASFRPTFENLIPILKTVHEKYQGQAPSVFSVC
Sequence of human JAK1 kinase domain (P23458 852-1154): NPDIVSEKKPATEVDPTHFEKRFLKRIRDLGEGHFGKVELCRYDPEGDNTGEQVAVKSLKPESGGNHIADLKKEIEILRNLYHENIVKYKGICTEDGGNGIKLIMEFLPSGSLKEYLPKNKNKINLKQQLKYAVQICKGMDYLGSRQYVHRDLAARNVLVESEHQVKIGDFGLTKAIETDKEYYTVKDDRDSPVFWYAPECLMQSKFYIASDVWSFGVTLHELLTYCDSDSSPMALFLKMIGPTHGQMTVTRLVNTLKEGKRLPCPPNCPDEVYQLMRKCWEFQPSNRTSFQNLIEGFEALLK

A word on the pKi: it is the Ki on a negative log10 scale, so that one unit is a factor of ten. For orientation: pEC50 means the negative decadic logarithm of the EC50, by convention in mol/L. Turning to `Cc1cc(NC(=O)c2cnn3ccc(N)nc23)n(-c2cc(Cl)ccc2C)n1` [Example 226], the negative logarithm of the Ki (pKi) was 9.30 in test [1], 8.13 in test [2] and 7.48 in test [4]. In test [3] (setting [5]), the pEC50 was 6.99.
With `Cc1nc(-c2ccccc2C)c(NC(=O)c2cnn3ccc(N)nc23)s1` [Example 231, 5-amino-pyrazolo[1,5-a]pyrimidine-3-carboxylic acid (2-methyl-4-o-tolyl-thiazol-5-yl)-amide], the pKi is 8.74 in test [1], 7.82 in test [2] and 7.36 in test [4]. Further, the pEC50 in test [3] (TF-1, 0.5 h) was 6.64.
Take `Cc1cc(NC(=O)c2cnn3ccc(Nc4cccc(C(F)(F)F)c4)nc23)on1` [Example 240, 5-(3-Trifluoromethyl-phenylamino)-pyrazolo-[1,5-a]pyrimidine-3-carboxylic acid (3-methyl-isoxazol-5-yl)-amide]: the negative logarithm of the Ki (pKi) is 8.49 in test [1], 7.44 in test [2] and 7.20 in test [4]. For the same molecule, the pEC50 in test [3] (setting [5]) is 6.13.
For `Nc1ccn2ncc(C(=O)Nc3c[nH]nc3-c3cc(Cl)ccc3Cl)c2n1` [Example 248, 5-Amino-pyrazolo[1,5-a]-pyrimidine-3-carboxylic acid [3-(2,5-dichloro-phenyl)-1H-pyrazol-4-yl]-amide] the same measures were 10.00, 8.55, 8.39 and 7.26.
For the molecule `Nc1ccn2ncc(C(=O)Nc3ccnn3-c3cc(Cl)ccc3Cl)c2n1` [Example 277, 5-Amino-pyrazolo[1,5-a]-pyrimidine-3-carboxylic acid [2-(2,5-dichloro-phenyl)-2H-pyrazol-3-yl]-amide], the pKi in test [1] was 9.05; in test [2] it was 7.75; in test [4] it was 7.36. Moreover, the pEC50 in test [3] (setting [5]) is 6.83.
For `O=C(NC1CCOCC1)c1cnn2ccc(NC3Cc4ccccc4C3)nc12` [Example 297, 5-(Indan-2-ylamino)-pyrazolo[1,5-a]pyrimidine-3-carboxylic acid (tetrahydro-pyran-4-yl)-amide] the same measures were 8.80, 7.33, 6.82 and 6.68.
For `O=C(N[C@H]1CC[C@H](O)CC1)c1cnn2ccc(NC3CCc4ccccc43)nc12` (some centres unmarked) [Example 299, 5-(Indan-1-ylamino)-pyrazolo[1,5-a]pyrimidine-3-carboxylic acid (4-hydroxy-cyclohexyl)-amide] the same measures were 9.10, 7.54, 7.29 and 6.64.
For `Cc1cc(NC(=O)c2cnn3ccc(N)nc23)n(-c2ccccc2C)n1` [Example 343, 5-Amino-pyrazolo[1,5-a]-pyrimidine-3-carboxylic acid (5-methyl-2-o-tolyl-2H-pyrazol-3-yl)-amide] the same measures were 8.38, 7.52, 7.01 and 6.43.
